Earlier results in article PMC7998926 (Microorganisms, 2021).

Tested on: MARV
Conditions: mouse, in vivo; cited from earlier work

CC(C)COCC(CN(Cc1ccccc1)c1ccccc1)N1CCCC1 (stereo not shown) [Bepridil]
protection: strongly protected
